Data reported in patent US11339169B2, “P2X3 and/or P2X2/3 compounds and methods” (Asana BioSciences, LLC, priority 2016, dated 2022).

What follows are compounds tested against T1, hP2X3 (Homo sapiens, UniProt P56373) (assay: FLIPR intracellular calcium assay, hP2X3). Conditions: human P2X3-HEK cells, agonist at EC75.
T1 construct: host or cells: HEK (hP2X3-HEK)
T1 sequence (P56373 1-397): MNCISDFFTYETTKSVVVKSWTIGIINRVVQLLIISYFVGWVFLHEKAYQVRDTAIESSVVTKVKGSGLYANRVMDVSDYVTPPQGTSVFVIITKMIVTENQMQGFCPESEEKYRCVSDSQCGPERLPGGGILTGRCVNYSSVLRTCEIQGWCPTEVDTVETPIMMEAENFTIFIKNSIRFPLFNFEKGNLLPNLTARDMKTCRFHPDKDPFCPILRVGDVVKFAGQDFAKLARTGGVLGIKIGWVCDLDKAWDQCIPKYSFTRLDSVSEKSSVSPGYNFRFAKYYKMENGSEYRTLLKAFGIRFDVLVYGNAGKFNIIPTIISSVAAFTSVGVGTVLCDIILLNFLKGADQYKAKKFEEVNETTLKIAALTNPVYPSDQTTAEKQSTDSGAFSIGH
Format: cell-based
Description: The FLIPR® assay utilizes cells which express human or rat P2X3 or P2X2/3 receptors. Recombinant cells expressing hP2X3 (Cat #6188) and hP2X2/3 (Cat #6179) were procured from Chantest Corp. Rat P2X2 (NCBI Accession No: U14414) was amplified by PCR from PC12 cDNA (a rat adrenal medulla cell line). The PCR product obtained containing the protein coding sequence of rat P2X2 was cloned into EcoRV-digested and dephosphorylated vector plRES-puro3 within the multiple cloning site (MCS). See, FIG. 1A.
(i) Intracellular Calcium Assay Protocol for Screening Compounds
Cryo-vial containing 6×10^6 cells (human P2X3-HEK/human P2X2/3-TRex293/rat P2X2/3-TRex293/rat P2X3 TRex-CHO) was thawed in a 37° C. water bath. Cells were suspended in 20 mL of respective cell plating media (See annexure for composition) in a 50 mL centrifuge tube. The cell viability was checked with the help of Trypan Blue dye. Upon washing, cells were plated in a black 384-well clear bottomed, sterile poly-D-lysine coated plate such that, each well contained 10,000 cells (15,000/well for hP2X3) in 30 μL cell plating media. The plate was incubated in a 5% CO2 incubator at 37° C. for 24 h.
The next day, prior to the assay, the cell plating media was removed from each well by decanting and gentle tapping. Thirty μL of FLIPR Calcium 4 dye solution was added to each well. The plate was incubated at 37° C. for 45 min (60 min for hP2X3). The plate was next equilibrated at room temperature for 15 minutes before placing it in a 384 well FLIPR for the assay.
Compounds were dissolved in DMSO and serially diluted following 11 point half log (3.16 fold) dilution with a starting concentration of 2 mM. Dilutions were mixed with assay buffer just before performing the assay.
Compounds were added to the respective wells of the assay-ready cell plate with the help of the FLIPR and fluorescence readings were captured for 5 min to observe any possible agonistic property of the compounds. The plate was then incubated at room temperature for 15 min. The cells were stimulated with respective agonist EC75 concentration and the fluorescence readings were captured for another 5 min by FLIPR. The difference in fluorescence readings in presence of the compounds were compared with that of the control wells (wells having no compound) to calculate the inhibitory potency of the compounds. The IC50 values of the compounds were determined using the Graph pad Prism software.
(ii) Cell Plating Media for hP2X3-HEK and hP2X2/3-TRex293 Cells • DMEM/F12 (1:1) HAM media (Invitrogen; Cat #11039) • 1×NEAA (Invitrogen; Cat #11140) • 25 mM HEPES (Invitrogen; Cat #15630) • 1 mM sodium pyruvate (Invitrogen; Cat #11360) • 10% tetracycline negative FBS (PAA; Cat #A15-209) • 1 μg/mL doxycycline (Clontech; Cat #63131) [for hP2X2/3-TRex293 cells only]
(v) Assay Buffer Composition • HBSS (Invitrogen Cat #14025) • 20 mM HEPES (Invitrogen Cat #15630) • 0.01% F127 (Sigma Cat #P2443) • 1.8 mM CaCl2 (Sigma Cat #C5080) • pH adjusted to 7.4
(vi) Dye Solution Composition • 1× FLIPR Calcium 4 dye in assay buffer (Molecular devices Cat #R8141) • 1.8 mM Probenecid (Sigma Cat #P8761) • pH adjusted to 7.4

IC50 [nM]	Compound
100 to 1000	CCn1ncc2nc(N3CCN(C(C)=O)CC3)nc(N[C@H](C)c3cnc4ccccc4c3)c21 [Example 50]
100 to 1000	CC[C@H](C)n1ncc2nc(N3CCN(C(N)=O)CC3)nc(NC(C)c3n[nH]c4ccccc34)c21 (stereo partly drawn) [Example 71]
100 to 1000	CC(=O)N1CCN(c2nc(N[C@H](C)c3cnc4ccccc4c3)c3c(cnn3CC3CCOCC3)n2)CC1 [Example 26]
100 to 1000	CCC(C)n1ncc2nc(N3CCN(C(C)=O)CC3)nc(NC(C)c3ccc(-c4ccccn4)cc3)c21 (stereo not drawn) [Example 53]
100 to 1000	CC(=O)N1CCN(c2nc(N[C@H](C)c3cnc4ccccc4c3)c3nn(-c4ccccc4)cc3n2)CC1 [Example 9, 1-{4-[2-Phenyl-7-((R)-1-quinolin-3-yl-ethylamino)-2H-pyrazolo[4,3-d]pyrimidin-5-yl]-piperazin-1-yl} ethanone]
100 to 1000	CC[C@H](C)n1ncc2nc(N3CCN(C(N)=O)CC3)nc(NC(C)c3cc4ccccn4n3)c21 (stereo partly drawn) [Example 73]
100 to 1000	CC(=O)N1CCN(c2nc(NC(C)c3cnc4ccccc4c3)c3nn(C(C)C)c(C(N)=O)c3n2)CC1 (stereo not drawn) [Example 95]
1 to 100	CCC(=O)N1CCN(c2nc(N[C@H](C)c3cnc4ccccc4c3)c3c(cnn3C(C)C)n2)CC1 [Example 37]
100 to 1000	CC(=O)N1CCN(c2nc(N[C@@H](C)c3cnc4ccccc4c3)c3c(cnn3C(C)C)n2)CC1 [Example 17]
1 to 100	CC(=O)N1CCN(c2nc(N[C@H](C)c3cnc4ccccc4c3)c3c(cnn3C3CCOCC3)n2)CC1 [Example 27]
100 to 1000	CCCCCCn1ncc2nc(N3CCN(C(C)=O)CC3)nc(N[C@H](C)c3cnc4ccccc4c3)c21 [Example 28]
100 to 1000	CCC(CC)n1ncc2nc(N3CCN(C(C)=O)CC3)nc(N[C@@H](CC)c3cnc4ccccc4c3)c21 [Example 36]
100 to 1000	CCC(C)n1ncc2nc(-n3cnnn3)nc(N[C@@H](c3cnc4ccccc4c3)C3CC3)c21 (single isomer, unassigned) [Example 78]
100 to 1000	CC(=O)N1CCN(c2nc(NC(C)c3cnc4ccccc4c3)c3nn(C(C)C)cc3n2)CC1 (stereo not drawn) [Example 2]
1 to 100	CC(=O)N1CCN(c2nc(NC(C)(C)Cc3ccc(Cl)cc3)c3nn(C(C)C)c(Br)c3n2)CC1 [Example 97]
100 to 1000	CC[C@H](C)n1ncc2nc(N3CCN(C(N)=O)CC3)nc(NC(c3ccc4nccn4c3)C3CC3)c21 (stereo partly drawn) [Example 67]
100 to 1000	CCC(C)n1ncc2nc(N3CCN(C)C(=O)C3)nc(N[C@H](C)c3cnc4ccccc4c3)c21 (stereo partly drawn) [Example 20]
100 to 1000	CCC(C)n1ncc2nc(-c3cnn(CC(N)=O)c3)nc(N[C@@H](c3cnc4ccccc4c3)C3CC3)c21 (stereo partly drawn) [Example 120]
100 to 1000	4-{1-sec-Butyl-7-[((R)-cyclopropyl-quinolin-3-yl-methyl)-amino]-1H-pyrazolo[4,3-d]pyrimidin-5-yl}-piperazine-1-sulfonic Acid Amide [Example 109]
100 to 1000	CCC(CC)n1ncc2nc(N3CCN(C(C)=O)CC3)nc(NC(c3ccc(OCC4CC4)nc3)C3CC3)c21 (stereo not drawn) [Example 63]
1 to 100	CCC(CC)n1cc2nc(N3CCN(C(C)=O)CC3)nc(N[C@H](C)c3cnc4ccccc4c3)c2n1 [Example 8]
100 to 1000	CC(C)n1ncc2nc(N3CCNC(=O)C3)nc(N[C@H](C)c3cnc4ccccc4c3)c21 [Example 41]
100 to 1000	CCC(CC)n1ncc2nc(N3CCN(C(C)=O)CC3)nc(N[C@@H](C)c3cnc4ccc(F)cc4c3)c21 [Example 54]
1 to 100	CC(=O)N1CCN(c2nc(N[C@H](C)c3cnc4ccccc4c3)c3nn(C(C)C)c(C4CC4)c3n2)CC1 [Example 107]
